How the values were obtained:
Human Met = target: T1, Human Met (Homo sapiens, UniProt P08581); test: Human Met kinase assay (33P radiometric / HTRF KinEase); format: biochemical; conditions: protocols of Examples D-1 and/or D-2; read-out: c-Met IC50
T1 construct: Human MET (residues 956-1390)
Procedure, shortened: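 Two formats gave IC50s by curve fitting. HTRF KinEase used MET residues 956-1390 with 1 μM biotin-peptide and 3.0 μM ATP (Km) for 40 min at room temperature, ten doses in 3% DMSO, 665/620 nm read. The 33P transfer assay used mutant Met R974-S1390 A1209G/V1290L (3.4 nM), 10 μM ATP, 250 μM peptide, pH 7.0, 40 min, nine doses from 1 μM.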

Human Mer = target: T2, Human Mer (Homo sapiens, UniProt Q12866); test: Human Mer kinase assay (33P radiometric / HTRF KinEase); format: biochemical; conditions: protocols of Examples C-1 and/or C-2
T2 construct: Human Mer (residues R557-E882 with H628Q and R794A, 0.7 nM); purchased Eurofins Pharma Discovery Services UK Limited (KinaseProfiler service)
T2 sequence (Q12866 557-882 limits assumed): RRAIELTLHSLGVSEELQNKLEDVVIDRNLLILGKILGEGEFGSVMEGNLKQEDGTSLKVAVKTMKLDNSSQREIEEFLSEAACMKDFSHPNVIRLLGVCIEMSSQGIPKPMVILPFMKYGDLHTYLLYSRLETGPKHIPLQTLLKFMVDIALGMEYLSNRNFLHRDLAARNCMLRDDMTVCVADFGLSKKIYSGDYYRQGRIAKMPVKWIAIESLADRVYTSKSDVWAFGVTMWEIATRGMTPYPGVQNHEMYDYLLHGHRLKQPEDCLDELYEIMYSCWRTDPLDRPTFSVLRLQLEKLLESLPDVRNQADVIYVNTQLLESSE
Procedure, shortened: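 Two formats yield IC50 values. HTRF KinEase used MER residues 528-999 with ATP at Km (40 μM), 1 μM biotin-peptide, 60 min RT, […], 10 concentrations. 33P filter assay used 0.7 nM Mer R557-E882 (H628Q/R794A), 10 μM ATP, 250 μM peptide, 40 min RT, top 1 μM.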

T1 sequence (P08581 974-1390 limits assumed): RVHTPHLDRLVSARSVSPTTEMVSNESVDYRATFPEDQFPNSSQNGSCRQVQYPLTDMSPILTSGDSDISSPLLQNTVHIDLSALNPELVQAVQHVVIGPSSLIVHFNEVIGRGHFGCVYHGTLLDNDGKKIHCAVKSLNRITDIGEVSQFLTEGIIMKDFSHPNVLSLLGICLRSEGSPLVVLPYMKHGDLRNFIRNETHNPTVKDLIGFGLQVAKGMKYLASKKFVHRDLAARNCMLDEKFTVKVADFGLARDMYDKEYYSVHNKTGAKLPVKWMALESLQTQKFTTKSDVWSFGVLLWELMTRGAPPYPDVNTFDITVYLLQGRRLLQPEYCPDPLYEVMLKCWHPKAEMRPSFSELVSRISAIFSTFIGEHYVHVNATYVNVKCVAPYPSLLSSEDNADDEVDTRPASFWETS

Row | SMILES | IC50 (Human Met) [nM] | IC50 (Human Mer) [nM]
1 | COc1cc2nccc(Oc3ccc(NC(=O)c4c(C)n(C)c(C)c(C(=O)NC5CC5)c4=O)cc3F)c2nc1OC [Compound 96, 3-N-Cyclopropyl-5-N-[4-[(6,7-dimethoxy-1,5-naphthyridin-4-yl)oxy]-3-fluorophenyl]-1,2,6-trimethyl-4-oxopyridine-3,5-dicarboxamide] | > 300 | > 300
2 | COCCOc1cc2nccc(Oc3ccc(NC(=O)c4c(C)n(C)c(C)c(C5=CCCC5)c4=O)cc3F)c2nc1OC [Compound 42, 5-(Cyclopenten-1-yl)-N-[3-fluoro-4-[[6-methoxy-7-(2-methoxyethoxy)-1,5-naphthyridin-4-yl]oxy]phenyl]-1,2,6-trimethyl-4-oxopyridine-3-carboxamide] | ≤ 100 | ≤ 100
3 | COc1cc2nccc(Oc3ccc(NC(=O)c4c(C)n(C)c(C)c(C(=O)N(C)C)c4=O)cc3F)c2nc1OC [Compound 95, 5-N-[4-[(6,7-Dimethoxy-1,5-naphthyridin-4-yl)oxy]-3-fluorophenyl]-3-N,3-N,1,2,6-pentamethyl-4-oxopyridine-3,5-dicarboxamide] | > 300 | > 300
4 | COCCOc1cc2nccc(Oc3ccc(NC(=O)c4cnc(C)c(/C=C/C5CC5)c4O)cc3F)c2nc1OC [Compound 37, 5-[(E)-2-Cyclopropylethenyl]-N-[3-fluoro-4-[[6-methoxy-7-(2-methoxyethoxy)-1,5-naphthyridin-4-yl]oxy]phenyl]-4-hydroxy-6-methylpyridine-3-carboxamide] | ≤ 100 | ≤ 100
5 | COc1cc2nccc(Oc3ccc(NC(=O)c4c(C)nc(C)c(C(=O)NC(C)C)c4O)cc3F)c2nc1OC [Compound 94, 3-N-[4-[(6,7-Dimethoxy-1,5-naphthyridin-4-yl)oxy]-3-fluorophenyl]-4-hydroxy-2,6-dimethyl-5-N-propan-2-ylpyridine-3,5-dicarboxamide] | > 300 | ≤ 100
6 | COCCOc1cc2nccc(Oc3ccc(NC(=O)c4cnc(C)c(C5=CCCC5)c4O)cc3F)c2nc1OC [Compound 33, 5-(Cyclopenten-1-yl)-N-[3-fluoro-4-[[6-methoxy-7-(2-methoxyethoxy)-1,5-naphthyridin-4-yl]oxy]phenyl]-4-hydroxy-6-methylpyridine-3-carboxamide] | ≤ 100 | ≤ 100
7 | COCCOc1cc2nccc(Oc3ccc(NC(=O)c4cnc(C)c(C5=CCCCC5)c4O)cc3F)c2nc1OC [Compound 34, 5-(Cyclohexen-1-yl)-N-[3-fluoro-4-[[6-methoxy-7-(2-methoxyethoxy)-1,5-naphthyridin-4-yl]oxy]phenyl]-4-hydroxy-6-methylpyridine-3-carboxamide] | ≤ 100 | ≤ 100
8 | COc1cnc2c(Oc3ccc(NC(=O)c4cnc(C)c(C5=CCOCC5)c4O)cc3F)ccnc2c1 [Compound 1-4, 5-(3,6-Dihydro-2H-pyran-4-yl)-N-[3-fluoro-4-[(7-methoxy-1,5-naphthyridin-4-yl)oxy]phenyl]-4-hydroxy-6-methylpyridine-3-carboxamide] | ≤ 100 | ≤ 100
9 | COc1cc2nccc(Oc3ccc(NC(=O)c4cnc(C)c(C5=CCOCC5)c4O)cc3F)c2cc1OC [Compound 19, 5-(3,6-Dihydro-2H-pyran-4-yl)-N-[4-(6,7-dimethoxyquinolin-4-yl)oxy-3-fluorophenyl]-4-hydroxy-6-methylpyridine-3-carboxamide] | ≤ 100 | ≤ 100
10 | COCCOc1cc2nccc(Oc3ccc(NC(=O)c4c(C)n(C)c(C)c(/C=C/C(C)(C)C)c4=O)cc3F)c2nc1OC [Compound 45, 5-[(E)-3,3-Dimethylbut-1-enyl]-N-[3-fluoro-4-[[6-methoxy-7-(2-methoxyethoxy)-1,5-naphthyridin-4-yl]oxy]phenyl]-1,2,6-trimethyl-4-oxopyridine-3-carboxamide] | ≤ 100 | ≤ 100
11 | COc1cc2nccc(Oc3ccc(NC(=O)c4cnc(C)c(C5=CCCCC5)c4O)cc3F)c2cc1OC [Compound 23, 5-(Cyclohexen-1-yl)-N-[4-(6,7-dimethoxyquinolin-4-yl)oxy-3-fluorophenyl]-4-hydroxy-6-methylpyridine-3-carboxamide] | ≤ 100 | ≤ 100
12 | COc1cc2nccc(Oc3ccc(NC(=O)c4cnc(C)c(/C=C/C(C)(C)C)c4O)cc3F)c2nc1OC [Compound 27, N-[4-[(6,7-Dimethoxy-1,5-naphthyridin-4-yl)oxy]-3-fluorophenyl]-5-[(E)-3,3-dimethylbut-1-enyl]-4-hydroxy-6-methylpyridine-3-carboxamide] | ≤ 100 | ≤ 100
13 | COc1cc2nccc(Oc3ccc(NC(=O)c4cnc(C)c(/C=C/CC(C)C)c4O)cc3F)c2nc1OC [Compound 28, N-[4-[(6,7-Dimethoxy-1,5-naphthyridin-4-yl)oxy]-3-fluorophenyl]-4-hydroxy-6-methyl-5-[(E)-4-methylpent-1-enyl]pyridine-3-carboxamide] | > 300 | ≤ 100
14 | COc1cc2nccc(Oc3ccc(NC(=O)c4cnc(C)c(/C=C/C5CCCC5)c4O)cc3F)c2nc1OC [Compound 25, 5-[(E)-2-Cyclopentylethenyl]-N-[4-[(6,7-dimethoxy-1,5-naphthyridin-4-yl)oxy]-3-fluorophenyl]-4-hydroxy-6-methylpyridine-3-carboxamide] | > 300 | ≤ 100
15 | COc1cc2nccc(Oc3ccc(NC(=O)c4c(C)nc(C)c(C#N)c4O)cc3F)c2nc1OC [Compound 87, 5-Cyano-N-[4-[(6,7-dimethoxy-1,5-naphthyridin-4-yl)oxy]-3-fluorophenyl]-4-hydroxy-2,6-dimethylpyridine-3-carboxamide] | > 300 | > 300
16 | COc1ccc2nccc(Oc3ccc(NC(=O)c4cnc(C)c(C5=CCCC5)c4O)cc3F)c2n1 [Compound 1-7, 5-(Cyclopenten-1-yl)-N-[3-fluoro-4-[(6-methoxy-1,5-naphthyridin-4-yl)oxy]phenyl]-4-hydroxy-6-methylpyridine-3-carboxamide] | ≤ 100 | ≤ 100
17 | COc1ccc2nccc(Oc3ccc(NC(=O)c4cnc(C)c(C5=CCCCC5)c4O)cc3F)c2n1 [Compound 1-6, 5-(Cyclohexen-1-yl)-N-[3-fluoro-4-[(6-methoxy-1,5-naphthyridin-4-yl)oxy]phenyl]-4-hydroxy-6-methylpyridine-3-carboxamide] | ≤ 100 | ≤ 100

Results, then the compound that gave them:

Row | IC50 (Human Met) [nM] | IC50 (Human Mer) [nM] | SMILES
18 | > 300 | ≤ 100 | COc1cc2nccc(Oc3ccc(NC(=O)c4c(C)n(C)c(C)c(N5CCOCC5)c4=O)cc3F)c2nc1OC [Compound 88, N-[4-[(6,7-Dimethoxy-1,5-naphthyridin-4-yl)oxy]-3-fluorophenyl]-1,2,6-trimethyl-5-morpholin-4-yl-4-oxopyridine-3-carboxamide]
19 | ≤ 100 | ≤ 100 | COc1cnc2c(Oc3ccc(NC(=O)c4cn(C)c(C)c(C5=CCOCC5)c4=O)cc3F)ccnc2c1 [Compound 12, 5-(3,6-Dihydro-2H-pyran-4-yl)-N-[3-fluoro-4-[(7-methoxy-1,5-naphthyridin-4-yl)oxy]phenyl]-1,6-dimethyl-4-oxopyridine-3-carboxamide]
20 | > 300 | > 300 | COc1cc2nccc(Oc3ccc(NC(=O)c4c(C)n(C)c(C)c(C5CC5)c4=O)cc3)c2nc1OC [Compound 48, 5-Cyclopropyl-N-[4-[(6,7-dimethoxy-1,5-naphthyridin-4-yl)oxy]phenyl]-1,2,6-trimethyl-4-oxopyridine-3-carboxamide]
21 | > 300 | ≤ 100 | COc1ccc2nccc(Oc3ccc(NC(=O)c4cnc(C)c(C5=CCOCC5)c4O)cc3F)c2n1 [Compound 1-5, 5-(3,6-Dihydro-2H-pyran-4-yl)-N-[3-fluoro-4-[(6-methoxy-1,5-naphthyridin-4-yl)oxy]phenyl]-4-hydroxy-6-methylpyridine-3-carboxamide]
22 | > 300 | ≤ 100 | COc1cc2nccc(Oc3ccc(NC(=O)c4c(C)n(C)c(C)c(N5CCCCC5)c4=O)cc3F)c2nc1OC [Compound 90, N-[4-[(6,7-dimethoxy-1,5-naphthyridin-4-yl)oxy]-3-fluorophenyl]-1,2,6-trimethyl-4-oxo-5-piperidin-1-ylpyridine-3-carboxamide]
23 | > 300 | ≤ 100 | COc1cc2nccc(Oc3ccc(NC(=O)c4c5n(cc(C6=CCOCC6)c4=O)CCOC5)cc3)c2nc1OC [Compound G1-8, 7-(3,6-Dihydro-2H-pyran-4-yl)-N-[4-[(6,7-dimethoxy-1,5-naphthyridin-4-yl)oxy]phenyl]-8-oxo-3,4-dihydro-1H-pyrido[2,1-c][1,4]oxazine-9-carboxamide]
24 | > 300 | ≤ 100 | COc1cc2nccc(Oc3ccc(NC(=O)c4c(C)ccn(C(C)C)c4=O)cc3F)c2nc1OC [Compound 38, N-[4-[(6,7-Dimethoxy-1,5-naphthyridin-4-yl)oxy]-3-fluorophenyl]-4-methyl-2-oxo-1-propan-2-ylpyridine-3-carboxamide]
